Three compounds from publication PMC6149922, “2-Substituted Aniline as a Simple Scaffold for LuxR-Regulated QS Modulation” (Molecules : A Journal of Synthetic Chemistry and Natural …, 2017) can be followed below.

The test addresses T1, LuxR (Aliivibrio fischeri, UniProt P12746).
T1 sequence (P12746 1-250): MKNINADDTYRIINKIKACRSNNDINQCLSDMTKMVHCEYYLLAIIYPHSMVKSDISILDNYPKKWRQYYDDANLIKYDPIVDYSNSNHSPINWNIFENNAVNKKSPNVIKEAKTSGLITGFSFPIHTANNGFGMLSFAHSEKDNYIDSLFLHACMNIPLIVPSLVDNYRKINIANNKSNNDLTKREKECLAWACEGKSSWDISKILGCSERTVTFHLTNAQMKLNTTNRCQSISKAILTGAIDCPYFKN
Description: antagonism of […] 3-oxo-C6-HSL-induced bioluminescence, recombinant E. coli NM522 pSB401 LuxR biosensor. It is filed as cell-based.

Structures are written as SMILES.

`CCCCCC(=O)Nc1ccccc1` [compound 12, N-Phenylhexanamide]: the IC50 was found to be 79 µM.

Take `CCCC(=O)Nc1ccccc1[N+](=O)[O-]` [compound 1, N-(2-nitrophenyl)butanamide]: the 50% inhibitory concentration (IC50) was found to be 58 µM.

`CCCCCC(=O)Nc1ccccc1[N+](=O)[O-]` [compound 2, N-(2-nitrophenyl)hexanamide]: the 50% inhibitory concentration (IC50) turned out to be 94 µM.

For orientation: IC50 means the point on the concentration scale where inhibition reaches its midpoint.
